Test results as given in ChEMBL document CHEMBL1201862, “PubChem BioAssay data set” (2004).
Several values for one entry are separate records, joined by “and”; a condition that tells them apart may be missing. Equal entries are not always repeated.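 Each compound was tested at five concentrations against cells in 96-well plates for 48 hours. Abbreviation: GI50, concentration required for 50% inhibition of growth.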 Activity calls are given as the source filed them. Rule as the data show it: active = GI50 up to about 1.1 µM and inactive = higher.

Experiments:
Experiment in all cases: NCI tumour cell line growth inhibition, 48 h
SW-620 = tested on: SW-620
HCC 2998 = tested on: HCC 2998
786-0 = tested on: 786-0
IGROV-1 = tested on: IGROV-1
MDA-MB-435 = tested on: MDA-MB-435
HOP-62 = tested on: HOP-62
XF498 = tested on: XF498
DMS-273 = tested on: DMS-273
Malme-3M = tested on: Malme-3M
SN12C = tested on: SN12C
NCI-H460 = tested on: NCI-H460
BT-549 = tested on: BT-549
SNB-75 = tested on: SNB-75
DMS-114 = tested on: DMS-114
OVCAR-5 = tested on: OVCAR-5
HOP-92 = tested on: HOP-92
NCI-H226 = tested on: NCI-H226
TK-10 = tested on: TK-10
SNB-78 = tested on: SNB-78
T47D = tested on: T47D
RPMI-8226 = tested on: RPMI-8226
UACC-257 = tested on: UACC-257
SK-MEL-28 = tested on: SK-MEL-28
A549 = tested on: A549
LXFL 529 = tested on: LXFL 529
COLO 205 = tested on: COLO 205
SF-295 = tested on: SF-295
A498 = tested on: A498
ACHN = tested on: ACHN
OVCAR-8 = tested on: OVCAR-8
KM-20L2 = tested on: KM-20L2
HCT-116 = tested on: HCT-116
EKVX = tested on: EKVX
MOLT-4 = tested on: MOLT-4
HOP-18 = tested on: HOP-18
SK-MEL-5 = tested on: SK-MEL-5
Hs-578T = tested on: Hs-578T
MDA-MB-231 = tested on: MDA-MB-231
PC-3 = tested on: PC-3
SK-MEL-2 = tested on: SK-MEL-2
UACC-62 = tested on: UACC-62
SF-268 = tested on: SF-268
U-251 = tested on: U-251
DLD-1 = tested on: DLD-1
HL-60 = tested on: HL-60
UO-31 = tested on: UO-31
SNB-19 = tested on: SNB-19
M14 = tested on: M14
CCRF-CEM = tested on: CCRF-CEM
MDA-N = tested on: MDA-N
SR = tested on: SR
OVCAR-4 = tested on: OVCAR-4
SF-539 = tested on: SF-539
M19-MEL = tested on: M19-MEL
NCI-H23 = tested on: NCI-H23
RXF 393 = tested on: RXF 393
SK-OV-3 = tested on: SK-OV-3
LOX IMVI = tested on: LOX IMVI
HCT-15 = tested on: HCT-15
CAKI-1 = tested on: CAKI-1
K562 = tested on: K562
HT-29 = tested on: HT-29
DU-145 = tested on: DU-145
MCF7 = tested on: MCF7
NCI/ADR-RES = tested on: NCI/ADR-RES
KM12 = tested on: KM12
OVCAR-3 = tested on: OVCAR-3
NCI-H522 = tested on: NCI-H522

For `CCOc1ccc(NC2=CC(=O)C(=O)c3ccccc32)cc1`, the GI50 (SW-620) was 1.82 µM (inactive), the GI50 (HCC 2998) was 13.1 µM (inactive) and the GI50 (786-0) was 3.78 µM (inactive). The GI50 (IGROV-1) was 4.29 µM (inactive), the GI50 (MDA-MB-435) was 1.8 µM (inactive) and the GI50 (HOP-62) was 3.88 µM (inactive). The GI50 (XF498) was 2.25 µM (inactive), the GI50 (DMS-273) was 2.88 µM (inactive) and the GI50 (Malme-3M) was 2.08 µM (inactive). For the same compound, the GI50 (SN12C) was 1.82 µM (inactive), the GI50 (NCI-H460) was 2.47 µM (inactive) and the GI50 (BT-549) was 1.66 µM (inactive). The GI50 (SNB-75) was 2.35 µM (inactive), the GI50 (DMS-114) was 1.88 µM (inactive) and the GI50 (OVCAR-5) was 3.77 µM (inactive). For the same compound, the GI50 (HOP-92) was 9.48 µM (inactive), the GI50 (NCI-H226) was 4.86 µM (inactive) and the GI50 (TK-10) was 8.32 µM (inactive). For the same compound, the GI50 (SNB-78) was 15.5 µM (inactive), the GI50 (T47D) was 8.79 µM (inactive) and the GI50 (RPMI-8226) was 4.47 µM (inactive). The GI50 (UACC-257) was 1.63 µM (inactive), the GI50 (SK-MEL-28) was 3.27 µM (inactive) and the GI50 (A549) was 2.74 µM (inactive). The GI50 (LXFL 529) was 3.47 µM (inactive), the GI50 (COLO 205) was 3.64 µM (inactive) and the GI50 (SF-295) was 2.61 µM (inactive). For the same compound, the GI50 (A498) was 3.61 µM (inactive), the GI50 (ACHN) was 2.28 µM (inactive) and the GI50 (OVCAR-8) was 4.33 µM (inactive). For the same compound, the GI50 (KM-20L2) was 18.7 µM (inactive), the GI50 (HCT-116) was 3.35 µM (inactive) and the GI50 (EKVX) was 16.4 µM (inactive). The GI50 (MOLT-4) was 8.83 µM (inactive), the GI50 (HOP-18) was 2.6 µM (inactive) and the GI50 (SK-MEL-5) was 1.59 µM (inactive). The GI50 (Hs-578T) was 2.37 µM (inactive), the GI50 (MDA-MB-231) was 12.1 µM (inactive) and the GI50 (PC-3) was 3.12 µM (inactive). For the same compound, the GI50 (SK-MEL-2) was 4.31 µM (inactive), the GI50 (UACC-62) was 1.72 µM (inactive) and the GI50 (SF-268) was 6.25 µM (inactive). For the same compound, the GI50 (U-251) was 3.85 µM (inactive), the GI50 (DLD-1) was 4.43 µM (inactive) and the GI50 (HL-60) was 0.459 µM (active). The GI50 (UO-31) was 4.45 µM (inactive), the GI50 (SNB-19) was 2.94 µM (inactive) and the GI50 (M14) was 1.75 µM (inactive). The GI50 (CCRF-CEM) was 9.48 µM (inactive), the GI50 (MDA-N) was 2.05 µM (inactive) and the GI50 (SR) was 3.4 µM (inactive). For the same compound, the GI50 (OVCAR-4) was 3.48 µM (inactive), the GI50 (SF-539) was 1.97 µM (inactive) and the GI50 (M19-MEL) was 0.647 µM (active). For the same compound, the GI50 (NCI-H23) was 1.91 µM (inactive), the GI50 (RXF 393) was 5.87 µM (inactive) and the GI50 (SK-OV-3) was 11.3 µM (inactive). For the same compound, the GI50 (LOX IMVI) was 1.3 µM (inactive), the GI50 (HCT-15) was 2.34 µM and the GI50 (CAKI-1) was 8.05 µM (inactive). The GI50 (K562) was 5.07 µM (inactive), the GI50 (HT-29) was 5.35 µM (inactive) and the GI50 (DU-145) was 2.38 µM (inactive). For the same compound, the GI50 (MCF7) was 2.15 µM (inactive), the GI50 (NCI/ADR-RES) was 2.83 µM (inactive) and the GI50 (KM12) was 3.77 µM (inactive). The GI50 (OVCAR-3) was 2.86 µM (inactive) and the GI50 (NCI-H522) was 1.81 µM (inactive).
For `CCN(CC)CCN1C(=O)c2c(c3c4cccc(Cl)c4n(C4OC(CO)C(OC)C(O)C4O)c3c3[nH]c4c(Cl)cccc4c23)C1=O` (configuration not stated), the GI50 (MDA-MB-435) was 0.0147 µM (active), the GI50 (XF498) was 0.0463 µM (active) and the GI50 (DMS-273) was < 0.0178 µM (active). For the same compound, the GI50 (BT-549) was 0.175 µM (active), the GI50 (DMS-114) was 0.0413 µM (active) and the GI50 (HOP-92) was < 34.4 nM (active) and < 24 nM (active). For the same compound, the GI50 (SNB-78) was 0.00101 µM (active), the GI50 (T47D) was 0.0212 µM (active) and the GI50 (LXFL 529) was < 0.0239 µM (active). The GI50 (SF-295) was < 0.0165 µM (active), the GI50 (KM-20L2) was 0.773 µM (active) and the GI50 (HCT-116) was < 0.0164 µM (active). The GI50 (MOLT-4) was < 10 nM (active) and 17.6 nM (active), the GI50 (HOP-18) was 0.00101 µM (active) and the GI50 (Hs-578T) was 0.0379 µM (active). The GI50 (MDA-MB-231) was 0.182 µM (active), the GI50 (PC-3) was < 0.0386 µM (active) and the GI50 (SK-MEL-2) was 42.8 nM (active) and 68.1 nM (active). For the same compound, the GI50 (DLD-1) was 0.0918 µM (active), the GI50 (CCRF-CEM) was < 0.0166 µM (active) and the GI50 (MDA-N) was 0.0111 µM (active). The GI50 (SR) was < 0.0137 µM (active), the GI50 (M19-MEL) was 0.0303 µM (active) and the GI50 (HCT-15) was 0.103 µM and 0.132 µM. The GI50 (HT-29) was < 0.0189 µM (active), the GI50 (DU-145) was 0.0121 µM (active) and the GI50 (MCF7) was < 0.01 µM (active). The GI50 (NCI/ADR-RES) was 0.169 µM (active).
`CC(=S)NNC(=O)c1ccncc1` was tested, and the GI50 (SW-620) was > 100 µM (inactive), the GI50 (HCC 2998) was > 100 µM (inactive) and the GI50 (786-0) was > 100 µM (inactive). For the same compound, the GI50 (IGROV-1) was > 100 µM (inactive), the GI50 (HOP-62) was > 100 µM (inactive) and the GI50 (XF498) was > 100 µM (inactive). For the same compound, the GI50 (DMS-273) was > 100 µM (inactive), the GI50 (Malme-3M) was > 100 µM (inactive) and the GI50 (SN12C) was > 100 µM (inactive). For the same compound, the GI50 (NCI-H460) was > 100 µM (inactive), the GI50 (SNB-75) was > 100 µM (inactive) and the GI50 (OVCAR-5) was > 100 µM (inactive). For the same compound, the GI50 (HOP-92) was > 100 µM (inactive), the GI50 (NCI-H226) was > 100 µM (inactive) and the GI50 (TK-10) was > 100 µM (inactive). For the same compound, the GI50 (SNB-78) was > 100 µM (inactive), the GI50 (UACC-257) was > 100 µM (inactive) and the GI50 (SK-MEL-28) was > 100 µM (inactive). For the same compound, the GI50 (A549) was > 100 µM (inactive), the GI50 (LXFL 529) was > 100 µM (inactive) and the GI50 (COLO 205) was > 100 µM (inactive). The GI50 (SF-295) was > 100 µM (inactive), the GI50 (A498) was > 100 µM (inactive) and the GI50 (ACHN) was > 100 µM (inactive). For the same compound, the GI50 (OVCAR-8) was > 100 µM (inactive), the GI50 (KM-20L2) was > 100 µM (inactive) and the GI50 (HCT-116) was > 100 µM (inactive). The GI50 (EKVX) was > 100 µM (inactive), the GI50 (MOLT-4) was > 100 µM (inactive) and the GI50 (HOP-18) was > 100 µM (inactive). The GI50 (SK-MEL-5) was > 100 µM (inactive), the GI50 (SK-MEL-2) was > 100 µM (inactive) and the GI50 (UACC-62) was > 100 µM (inactive). The GI50 (SF-268) was > 100 µM (inactive), the GI50 (U-251) was > 100 µM (inactive) and the GI50 (DLD-1) was > 100 µM (inactive). For the same compound, the GI50 (HL-60) was > 100 µM (inactive), the GI50 (UO-31) was > 100 µM (inactive) and the GI50 (SNB-19) was > 100 µM (inactive). For the same compound, the GI50 (M14) was > 100 µM (inactive), the GI50 (CCRF-CEM) was > 100 µM (inactive) and the GI50 (SR) was > 100 µM (inactive). The GI50 (OVCAR-4) was > 100 µM (inactive), the GI50 (SF-539) was > 100 µM (inactive) and the GI50 (M19-MEL) was > 100 µM (inactive). For the same compound, the GI50 (NCI-H23) was > 100 µM (inactive), the GI50 (RXF 393) was > 100 µM (inactive) and the GI50 (SK-OV-3) was > 100 µM (inactive). The GI50 (LOX IMVI) was > 100 µM (inactive), the GI50 (HCT-15) was over 100 µM and the GI50 (CAKI-1) was > 100 µM (inactive). For the same compound, the GI50 (K562) was > 100 µM (inactive), the GI50 (HT-29) was > 100 µM (inactive) and the GI50 (KM12) was > 100 µM (inactive). For the same compound, the GI50 (OVCAR-3) was > 100 µM (inactive) and the GI50 (NCI-H522) was > 100 µM (inactive).
